Results reported in US6531139B1, “Self-emulsifying formulation for lipophilic compounds” (Pharmacia & Upjohn Company, priority 1997, dated 2003).

Test: aqueous solubility in buffer
Type: physicochemical
Conditions: buffer of pH 6.5 (close to the pH of the intestine)
Experimental: However, like many other HIV protease inhibitors, these compounds are characteristically lipophilic and thus poorly water soluble. For example, the compound of formula I has an aqueous solubility about 1 μg/ml in the buffer of pH 6.5 (close to the pH of the intestine), which is considered as extremely poor aqueous solubility and would be expected to provide very low oral bioavailability in the free acid form.

solubility: ~1 µg/mL
Compound: CCC[C@@]1(CCc2ccccc2)CC(O)=C([C@H](CC)c2cccc(NS(=O)(=O)c3ccc(C(F)(F)F)cn3)c2)C(=O)O1 [compound of formula I]
